“Also recorded” adds a separate entry of the source. Non-standard residues stand in square brackets, D forms with d. Residues, ends and D or L forms follow the SMILES beside them. Nle = CCCC[C@H](N)C(=O)O
Experiments:
[1] = tested on: Cdc25A; test: Cdc25A protein level and turnover by immunoblotting in UV-irradiated U-2-OS cells; type: cell-based, human; set-up: UV-induced degradation of the endogenous Cdc25A protein: dose or concentration left out as unconfirmed
[2] = tested on: Chk1/Cdc25A; test: Chk1/Cdc25A association (co-immunoprecipitation) in UV-irradiated U-2-OS cells transfected with HA-Cdc25A; type: cell-based, human; conditions: caffeine 10 mM, 1 hour preincubation before UV (15 J/m^2), lysed 2 hours later
Procedure: (§1) FIG. 3. […] Asynchronous SAOS-2 cells were irradiated with UV (15 J/m^2) or left untreated. Cells were harvested 2 hours later and lysates were subjected to immunoblotting and phosphatase activity measurements. […] After an additional 2 hours, cells were lysed and analyzed for levels and complexes of HACdc25A and Chk1 as indicated. […] Chk1 was immunoprecipitated from lysates of U-2-OS cells treated as in (B), and its activity determined in an in vitro kinase assay in the presence or absence of the Chk1 inhibitor, UCN-01 (1 μM), using purified GST-Cdc25A as a substrate.
(§2) Immunochemical techniques: Antibodies used in this study: Mouse monoclonal antibodies against human Cdc25A (DCS-122, DCS-124) and F-6 (Santa Cruz), Cdc25B (DCS-162, DCS-164) and Cdc25C (DCS-193) full length proteins fused to GST were generated by means of established hybridoma technology as described. Rabbit polyclonal antobody against Cdc25C (SC-327) were purchased from Santa Cruz. Antiserum against cdk2 Tyr15 was obtained from Calbiochem.

[3] = tested on: tyrosine phosphatases including Cdc25
Source text: as §2

[4] = molecular target: Chk1 (Homo sapiens, UniProt O14757); conditions: UCN-01 1 μM added into the kinase reaction; Chk1 immunoprecipitated from U-2-OS lysates
Procedure: as §1, §2

[5] = tested on: Cdc25A; test: Cdc25A phosphatase activity assay (activation of cyclin B1/Cdc2) on lysates of UV-irradiated U-2-OS cells; type: cell-based, human; set-up: Cdc25A-associated phosphatase activity after UV: dose or concentration left out as unconfirmed
[6] = UCN-01 at the time of UV irradiation (15 J/m^2), U-2-OS

Sequence of Chk1 (O14757 whole entry): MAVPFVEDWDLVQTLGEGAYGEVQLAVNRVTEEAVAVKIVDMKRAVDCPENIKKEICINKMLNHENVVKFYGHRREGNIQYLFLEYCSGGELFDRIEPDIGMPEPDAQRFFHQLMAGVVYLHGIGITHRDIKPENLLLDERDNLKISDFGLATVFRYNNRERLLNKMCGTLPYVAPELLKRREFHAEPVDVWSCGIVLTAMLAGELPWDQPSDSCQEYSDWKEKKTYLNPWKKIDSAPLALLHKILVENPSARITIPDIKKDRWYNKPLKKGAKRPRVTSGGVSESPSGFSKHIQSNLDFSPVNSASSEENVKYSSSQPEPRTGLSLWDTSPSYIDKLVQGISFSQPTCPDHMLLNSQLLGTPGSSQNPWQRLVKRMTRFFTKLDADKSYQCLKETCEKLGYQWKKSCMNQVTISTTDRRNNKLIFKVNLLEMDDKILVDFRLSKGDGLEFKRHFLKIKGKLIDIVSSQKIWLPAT

Cn1c(=O)c2c(ncn2C)n(C)c1=O [caffeine]
half-life of the Cdc25A protein after UV ([1]; caffeine prior to UV irradiation, compared to non-irradiated cells): restored | UV-induced increase in Chk1/Cdc25A association [2]: quantitatively prevented

sodium vanadate
ability of mock-treated cell lysates to dephosphorylate and superactivate cyclin E/cdk2 [3]: completely prevented

CN[C@@H]1C[C@H]2O[C@@](C)([C@@H]1OC)n1c3ccccc3c3c4c(c5c6ccccc6n2c5c31)C(=O)N[C@@H]4O [UCN-01]
basal and UV-induced Chk1 kinase activities towards GST-Cdc25A [4]: completely inhibited | UV-induced degradation of the endogenous Cdc25A protein [1, 6]: completely abolished; also recorded: prevented | Cdc25A-associated phosphatase activity after UV [5, 6]: allowed maintenance of high

CCCC[C@@H](C=O)NC(=O)[C@H](CC(C)C)NC(=O)[C@H](CC(C)C)NC(C)=O [LLnL] (Ac-Leu-Leu-[Nle]-aldehyde)
UV-induced reduction of Cdc25A protein level ([1]; LLnL 25 μg/ml added immediately after UV (15 J/m^2), U-2-OS (endogenous) and U-2-OS/B3C4 (ectopic Cdc25A), lysates 1 hour after UV): entirely prevented | UV-induced reduction of Cdc25A phosphatase activity ([5]; LLnL 25 μg/ml added immediately after UV (15 J/m^2), endogenous and ectopic Cdc25A, 1 hour after UV): entirely prevented
